Laboratory results reported in US7335682B2, “Pharmaceutical compositions and methods for treating immune-response associated diseases of the surface and the anterior segment of the eye” (The Zhongshan Opthalmic Center, priority 2000, dated 2008).
Where two headings read alike, the source gives them in different places.

Legend:
[1] = test system: immune rejection of allotypic cornea transplantation; conditions: rat; for effect on immune rejection in allotypic cornea transplantation: superficial (ocular surface) administration
[2] = test system: immune rejection in high risk cornea transplantation; test: Clinical study of suppression of immune rejection in high risk cornea transplantation
Excerpt: Fifty-six high risk patients (56 eyes) who needed operation for cornea transplantation were randomly divided into a treatment group and a control group, each having […] patients. […] Average time for follow-up survey was 5½ months. The main criteria for clinical valuation include visual function, lasting time for transparency, new angiopoiesis, swelling, opaque degree of transplanted corneas after operation.
56 high risky patients (56 eyes) who need operation for cornea transplantation were chosen in this study with 32 eyes from male and 24 from female. The average age was 31 (19-66). Of which 27 eyes were carried for full cornea transplantation, 14 for full cornea transplantation with scleral ring, 10 eyes with angiopoiesis cornea were used for cornea transplantation, and 10 for multiple transplantations. Blindness was caused by pyogenic infection of eyes (30 eyes), severe chemical injury (18 eyes), and thermal burn (8 eyes).
The control medicine CsA was a product of Swiss Sandoz pharmaceuticals which was diluted to 1% eye drops with oleum ricini. Corticosteroid eye drops was also purchased commercially.
The above cases were randomly divided into treatment group and control group with each having 28 eyes. […] Medicines were given 3 days after surgery, continuing 3-9 months, follow-up survey was 5½ months.
Observation was done twice a week within 1-3 months after medication, then once a week after 3 months. The items for observation were vision and transplanted corneas (including three criteria: new angiopoiesis, swelling, opacity of transplanted corneas). The scores for each criterion are as follows: new angiopoiesis has grades 0-3, grade 0 indicates no new angiopoiesis (0 score), grade 1 a few new angiopoiesis focusing on transplanted corneas and starting penetration the edges of transplantation (1 score), grade 2 a few new angiopoiesis focusing on center of the transplanted corneas (2 scores), grade 3 a great numbers of new angiopoiesis fully covering the whole transplanted corneas (3 scores). The swelling contains grades 0-3, grade 0 means no swelling (0 score), grade 1 light swelling (1 score), grade 2 medium swelling (2 scores), grade 3 severe swelling (3 scores). […] Rejection index (RI) is a sum of the previous 3 criteria. When RI=5 scores it is considered rejection. The study would not cover the following conditions: epithelium had reaction of rejection, complication happened during operation, and swelling and dissolution of transplanted corneas occurred after operation due to a functional failure of implanted cornea endothelia, lesion fissure, secondary glaucoma, infection of transplantation.
All operations on patients in the study were done by professors in the Department of Corneal Diseases. Donor corneas were all freshly obtained from adults. Specific people were assigned for follow-up survey after surgery. t-test, u-test, and analysis of variance were carried out on the data using commercially available software.

[3] = test system: immune-response related ocular surface diseases; test: Further clinical observations with topical tacrolimus in immune ocular diseases; format: in vivo, patients
immunosuppression = conditions: in vitro; cited from earlier work
[4] = cited from earlier work

SMILES | effect on inflammation in early phase ([1]; superficial administration) | inhibition of new angiopoiesis after cornea transplantation ([1]; superficial administration) | final rate of rejection to the transplantation ([2]; 28 eyes per group, RI=5 counted as rejection, follow-up 5½ months) [%] | maintenance time for transparency in transplanted corneas after surgery ([2]; 28 eyes per group, eye drops four times a day with TOBRA DEX) [days] | eyes with final vision (=0.05 for FK-506, =0.5 for CsA as printed) ([2]; 28 eyes per group, with TOBRA DEX, follow-up 5½ months) [%] | new angiopoiesis, swelling, opaqueness and RI values of cornea transplantation ([2]; during follow-up survey) | adverse reactions (twinges, itches, toxic reactions on cornea epithelia) ([2]; topical eye drops, patients) | conjunctive inflammation non-responsive to CsA treatment ([3]; 17 cases, topical administration) | recurrence of recurring erosive corneal ulcer ([3]; 26 cases, five months to two years, topical) | rejection reaction in cornea transplantation ([3]; 64 cases, most of them, topical) | effect on Type I and IV hypersensitive reactions ([3]; topical administration) | effect on Types II and III hypersensitive reactions (e.g. Steven Johnson Syndrome) ([3]; topical administration) | effect on re-construction of ocular surface and obstinate and immune corneal diseases ([3]; topical administration) | effect on immunosuppression relative to CsA (immunosuppression) | terminal elimination half-life ([4]; healthy volunteers) [h] | absorption half-life ([4]; oral dose, measured in 16 patients) [h] | terminal elimination half-life ([4]; transplant patients) [h] | effect on immune rejection in allotypic cornea transplantation [1] | effect on immune rejection in allotypic cornea transplantation ([1]; listed as Tecolimus) | effect on swelling of transplanted corneas in early phase ([1]; superficial administration)
C[C@@H]1C[C@H]2[C@@H]3CCC4=CC(=O)C=C[C@]4(C)[C@@]3(F)[C@@H](O)C[C@]2(C)[C@@]1(O)C(=O)CO [corticosteroid, dexamethasone] | strong inhibition effect | strongest effect |  |  |  |  |  |  |  |  |  |  |  |  |  |  |  |  |  | 
C=CC[C@@H]1/C=C(\C)C[C@H](C)C[C@H](OC)[C@H]2O[C@@](O)(C(=O)C(=O)N3CCCC[C@H]3C(=O)O[C@H](/C(C)=C/[C@@H]3CC[C@@H](O)[C@H](OC)C3)[C@H](C)[C@@H](O)CC1=O)[C@H](C)C[C@@H]2OC.O [tacrolimus, Tacrolimus] |  |  | 60.8 | 70.4 ± 18.32 | 39.3 | much better than the CsA group | No patient showed adverse reactions | successfully controlled | only three cases had recurrence | significantly reduced rejection reaction | significant therapeutic effects | some, but not complete therapeutic effect | excellent clinical effects | 10-100 folds | 21.2 | 5.7 ± 4.6 | 11.7 ± 3.9 | clear inhibition | clearly therapeutic effects | worse therapeutic effects
